Laboratory results published in US20240174671A1, “New 2,3-Dihydro-1H-pyrrolo[3,2-b]pyridine Derivatives as Sigma Ligands” (ACONDICIONAMIENTO TARRASENSE, priority 2021, published 2024).
pKi: −log10 of the molar value. Where a name gives a salt, the structure may show the parent alone.

Legend:
[1] = molecular target: T1, human σ1 receptor (Homo sapiens, UniProt Q99720); assay: Human σ1 receptor radioligand assay ([3H](+)-pentazocine); type: binding; conditions: transfected HEK-293 membranes, 5 nM [3H](+)-pentazocine, 37° C., 120 minutes; read-out: Binding σ-[…] (binding to σ1-receptor expressed as Ki)
T1 construct: expressed in transfected cells; host or cells: HEK-293
T1 sequence (Q99720 whole entry): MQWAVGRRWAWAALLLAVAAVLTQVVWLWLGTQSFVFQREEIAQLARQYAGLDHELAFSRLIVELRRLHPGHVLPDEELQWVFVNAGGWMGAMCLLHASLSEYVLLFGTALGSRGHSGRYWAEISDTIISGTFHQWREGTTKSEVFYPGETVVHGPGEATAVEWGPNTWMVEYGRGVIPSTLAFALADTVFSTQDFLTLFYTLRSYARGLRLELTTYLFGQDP
Method: Human σ1 Receptor Radioligand Assay
(§1) NBS (non-specific binding) was measured by adding 10 μM haloperidol. The binding of the test compound was measured at either one concentration (% inhibition at 1 or 10 µM) or five different concentrations to determine affinity values (Ki). Plates were incubated at 37° C. for 120 minutes. After the incubation period, the reaction mix was then transferred to MultiScreen HTS, FC plates (Millipore), filtered and plates were washed 3 times with ice-cold 10 mM Tris-HCL (pH7.4). Filters were dried and counted at approximately 40% efficiency in a MicroBeta scintillation counter (Perkin-Elmer) using EcoScint liquid scintillation cocktail.

[2] = molecular target: T2, human σ2/TMEM97 receptor (Homo sapiens, UniProt Q5BJF2); assay: Binding assay to human σ2/TMEM97 receptor ([3H]-DTG); conditions: transfected HEK-293 membranes, 10 nM [3H]-DTG, 25° C., 120 minutes; read-out: Binding σ-[…] (binding to σ2-receptor expressed as Ki)
T2 construct: expressed in transfected cells; host or cells: HEK-293
T2 sequence (Q5BJF2 whole entry): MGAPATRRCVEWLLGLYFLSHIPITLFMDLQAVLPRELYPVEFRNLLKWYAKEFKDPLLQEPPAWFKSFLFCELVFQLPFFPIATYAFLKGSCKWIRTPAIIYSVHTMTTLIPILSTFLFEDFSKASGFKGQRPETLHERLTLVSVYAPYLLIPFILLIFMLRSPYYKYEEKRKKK
Method: Binding Assay to Human σ2/TMEM97 Receptor.
as §1, with “Transfected HEK-293 membranes (15 μg) were incubated with 10 nM [^3H]-1,3-Di-o-tolylguanidine (DTG) in assay buffer containing Tris-HCl 50 mM at pH 8.0. NSB” for “NBS”, “25°” for “37°”, “was” for “was then”, “and” for “and plates were”, “(pH 8.0).” for “(pH7.4).”

Row | SMILES | pKi [1] | pKi [2]
1 | CC(C)CCN(C)[C@H]1CCCCN(C(=O)N2CCc3ncccc32)C1 [Example 122, (S)-(2,3-dihydro-1H-pyrrolo[3,2-b]pyridin-1-yl)(3-(isopentyl(methyl)amino)azepan-1-yl)methanone] | > 7.00 | 6.30 to 7.00
2 | CN(Cc1ccccc1)[C@H]1CCCN(C(=O)N2CCc3ncccc32)C1 [Example 61, (S)-(3-(benzyl(methy)amino)piperidin-1-yl)(2,3-dihydro-1H-pyrrolo[3,2-b]pyridin-1-yl)methanone] | < 6.00 | > 7.00
3 | Cc1ccc2c(n1)C(C)(C)CN2C(=O)[C@H]1CN(Cc2ccccc2)C[C@@H]1C [Example 125, ((3R,4R)-1-benzyl-4-methylpyrrolidin-3-yl)(3,3,5-trimethyl-2,3-dihydro-1H-pyrrolo[3,2-b]pyridin-1-yl)methanone] | > 7.00 | 6.30 to 7.00
4 | CN(Cc1ccc(C#N)cc1)C1CCN(C(=O)N2CC(C)(C)c3ncccc32)CC1 [Example 84, 4-(((1-(3,3-dimethyl-2,3-dihydro-1H-pyrrolo[3,2-b]pyridine-1-carbonyl)piperidin-4-yl)(methyl)amino)methyl)benzonitrile] | 6.30 to 7.00 | > 7.00
5 | Cc1ccc2c(n1)C(C)(C)CN2C(=O)[C@H]1CC[C@H](N(C)Cc2ccc(F)cn2)CC1 [Example 179, ((1r,4r)-4-(((5-fluoropyridin-2-yl)methyl)(methyl)amino)cyclohexyl)(3,3,5-trimethyl-2,3-dihydro-1H-pyrrolo[3,2-b]pyridin-1-yl)methanone] | > 7.00 | 6.30 to 7.00
6 | CCN(CC)C(CNC(=O)N1CC(C)(C)c2nc(C)ccc21)c1ccccc1 (stereo not shown) [Example 9, N-(2-(diethylamino)-2-phenylethyl)-3,3,5-trimethyl-2,3-dihydro-1H-pyrrolo[3,2-b]pyridine-1-carboxamide] | > 7.00 | < 6.00
7 | Cc1ccc2c(n1)C(C)(C)CN2C(=O)N1CCC2(CCN(Cc3ccccc3)CC2)CC1 [Example 57, (9-benzyl-3,9-diazaspiro[5.5]undecan-3-yl)(3,3,5-trimethyl-2,3-dihydro-1H-pyrrolo[3,2-b]pyridin-1-yl)methanone] | > 7.00 | > 7.00
8 | Cc1ccc2c(n1)C(C)(C)CN2C(=O)[C@H]1CC[C@H](N(C)Cc2ccccc2)CC1 [Example 140, ((1r,4r)-4-(benzyl(methyl)amino)cyclohexyl)(3,3,5-trimethyl-2,3-dihydro-1H-pyrrolo[3,2-b]pyridin-1-yl)methanone] | > 7.00 | > 7.00
9 | CC1(C)CN(C(=O)NC2CCN(Cc3ccc(F)c(F)c3)CC2)c2cccnc21 [Example 46, N-(1-(3,4-difluorobenzyl)piperidin-4-yl)-3,3-dimethyl-2,3-dihydro-1H-pyrrolo[3,2-b]pyridine-1-carboxamide] | > 7.00 | < 6.00
10 | Cc1ccc2c(n1)C(C)(C)CN2C(=O)[C@H]1C[C@H](NCc2ccccc2)C1 [Example 134, ((1r,3r)-3-(benzylamino)cyclobutyl)(3,3,5-trimethyl-2,3-dihydro-1H-pyrrolo[3,2-b]pyridin-1-yl)methanone] | 6.30 to 7.00 | < 6.00
11 | Cc1ccc2c(n1)C(C)(C)CN2C(=O)C1CCN(Cc2ccccc2)CC1 [Example 123, (1-benzylpiperidin-4-yl)(3,3,5-trimethyl-2,3-dihydro-1H-pyrrolo[3,2-b]pyridin-1-yl)methanone] | > 7.00 | 6.00 to 6.30
12 | CN(Cc1ccccc1F)[C@H]1CC[C@H](C(=O)N2CC(C)(C)c3ncccc32)CC1 [Example 175, (3,3-dimethyl-2,3-dihydro-1H-pyrrolo[3,2-b]pyridin-1-yl)((1r,4r)-4-((2-fluorobenzyl)(methyl)amino)cyclohexyl)methanone] | > 7.00 | > 7.00
13 | Cc1ccc2c(n1)C(C)(C)CN2C(=O)N1CCC(N(C)Cc2cccnc2)CC1 [Example 74, (4-(methyl(pyridin-3-ylmethyl)amino)piperidin-1-yl)(3,3,5-trimethyl-2,3-dihydro-1H-pyrrolo[3,2-b]pyridin-1-yl)methanone] | < 6.00 | 6.00 to 6.30
14 | Cc1ccc2c(n1)C(C)(C)CN2C(=O)N1CCC2(CCN(C3CCOCC3)CC2)C1 [Example 110, (8-(tetrahydro-2H-pyran-4-yl)-2,8-diazaspiro[4.5]decan-2-yl)(3,3,5-trimethyl-2,3-dihydro-1H-pyrrolo[3,2-b]pyridin-1-yl)methanone] | < 6.00 | > 7.00
15 | Cc1ccc2c(n1)C(C)(C)CN2C(=O)NC1CCN(Cc2cccc(F)c2)CC1 [Example 26, N-(1-(3-fluorobenzyl)piperidin-4-yl)-3,3,5-trimethyl-2,3-dihydro-1H-pyrrolo[3,2-b]pyridine-1-carboxamide] | > 7.00 | < 6.00
16 | CN(Cc1ccccc1)[C@H]1CC[C@@H](NC(=O)N2CC(C)(C)c3ncccc32)CC1 [Example 72, N-((1s,4s)-4-(benzyl(methyl)amino)cyclohexyl)-3,3-dimethyl-2,3-dihydro-1H-pyrrolo[3,2-b]pyridine-1-carboxamide] | > 7.00 | > 7.00
17 | Cc1ccc2c(n1)C(C)(C)CN2C(=O)N(C)C[C@@H](c1ccccc1)N(C)C [Example 8, (R)—N-(2-(dimethylamino)-2-phenylethyl)-N,3,3,5-tetramethyl-2,3-dihydro-1H-pyrrolo[3,2-b]pyridine-1-carboxamide] | 6.00 to 6.30 | < 6.00
18 | Cc1ccc2c(n1)C(C)(C)CN2C(=O)N[C@H]1CCN(Cc2ccccc2)C1 [Example 21, (S)—N-(1-benzylpyrrolidin-3-yl)-3,3,5-trimethyl-2,3-dihydro-1H-pyrrolo[3,2-b]pyridine-1-carboxamide] | 6.30 to 7.00 | < 6.00
19 | Cc1ccc2c(n1)C(C)(C)CN2C(=O)[C@H]1CC[C@H](N(C)Cc2ccc(F)c(F)c2)CC1 [Example 170, ((1r,4r)-4-((3,4-difluorobenzyl)(methyl)amino)cyclohexyl)(3,3,5-trimethyl-2,3-dihydro-1H-pyrrolo[3,2-b]pyridin-1-yl)methanone] | > 7.00 | > 7.00

Continued, values first:

Row | pKi [1] | pKi [2] | SMILES
20 | > 7.00 | > 7.00 | Cc1ccc2c(n1)C(C)(C)CN2C(=O)[C@H]1CC[C@H](N(C)Cc2cccc(F)c2)CC1 [Example 169, ((1r,4r)-4-((3-fluorobenzyl)(methyl)amino)cyclohexyl)(3,3,5-trimethyl-2,3-dihydro-1H-pyrrolo[3,2-b]pyridin-1-yl)methanone]
21 | > 7.00 | 6.30 to 7.00 | CC1(C)CN(C(=O)[C@H]2CC[C@H](NCc3ccccc3)CC2)c2cccnc21 [Example 128, ((1r,4r)-4-(benzylamino)cyclohexyl)(3,3-dimethyl-2,3-dihydro-1H-pyrrolo[3,2-b]pyridin-1-yl)methanone dihydrochloride]
22 | > 7.00 | > 7.00 | CC1(C)CN(C(=O)N2CCC3(CCN(Cc4ccc(C#N)cc4F)CC3)CC2)c2cccnc21 [Example 165, 4-((9-(3,3-dimethyl-2,3-dihydro-1H-pyrrolo[3,2-b]pyridine-1-carbonyl)-3,9-diazaspiro[5.5]undecan-3-yl)methyl)-3-fluorobenzonitrile]
23 | 6.30 to 7.00 | > 7.00 | Cc1ccc2c(n1)C(C)(C)CN2C(=O)N1CCC(N(C)Cc2ccc(F)cc2)CC1 [Example 114, (4-((4-fluorobenzyl)(methyl)amino)piperidin-1-yl)(3,3,5-trimethyl-2,3-dihydro-1H-pyrrolo[3,2-b]pyridin-1-yl)methanone]
24 | > 7.00 | < 6.00 | Cc1nc2c(cc1F)N(C(=O)NC[C@@H](c1ccccc1)N(C)C)CC2(C)C [Example 16, (R)—N-(2-(dimethylamino)-2-phenylethyl)-6-fluoro-3,3,5-trimethyl-2,3-dihydro-1H-pyrrolo[3,2-b]pyridine-1-carboxamide]
25 | > 7.00 | < 6.00 | CC1(C)CN(C(=O)NC2CCN(Cc3cccc(F)c3)CC2)c2cccnc21 [Example 47, N-(1-(3-fluorobenzyl)piperidin-4-yl)-3,3-dimethyl-2,3-dihydro-1H-pyrrolo[3,2-b]pyridine-1-carboxamide]
26 | > 7.00 | > 7.00 | Cc1ccc2c(n1)C(C)(C)CN2C(=O)[C@H]1CC[C@H](N(C)Cc2cc(F)cc(F)c2)CC1 [Example 168, ((1r,4r)-4-((3,5-difluorobenzyl)(methyl)amino)cyclohexyl)(3,3,5-trimethyl-2,3-dihydro-1H-pyrrolo[3,2-b]pyridin-1-yl)methanone]
27 | < 6.00 | > 7.00 | Cc1ccc2c(n1)C(C)(C)CN2C(=O)N1CCC2(CCN(Cc3cccc(C#N)c3)CC2)C1 [Example 92, 3-((2-(3,3,5-trimethyl-2,3-dihydro-1H-pyrrolo[3,2-b]pyridine-1-carbonyl)-2,8-diazaspiro[4.5]decan-8-yl)methyl)benzonitrile]
28 | > 7.00 |  | CC1(C)CN(C(=O)NC2CCN(Cc3ccccc3)CC2)c2ccc(C#N)nc21 [Example 30, N-(1-benzylpiperidin-4-yl)-5-cyano-3,3-dimethyl-2,3-dihydro-1H-pyrrolo[3,2-b]pyridine-1-carboxamide]
